Data on 27 compounds can be found in patent US7202261B2, “Calcilytic compounds” (NPS Pharmaceuticals, Inc., priority 1996, dated 2007).

The term IC50 denotes the concentration that inhibits the measured activity by half.

Molecules are shown by their SMILES. Counter-ions that a name gives are not always drawn.

One assay has as its target T1, human calcium receptor (Homo sapiens, UniProt P41180).
T1 construct: expressed in transfected cells
T1 sequence (P41180 20-1078): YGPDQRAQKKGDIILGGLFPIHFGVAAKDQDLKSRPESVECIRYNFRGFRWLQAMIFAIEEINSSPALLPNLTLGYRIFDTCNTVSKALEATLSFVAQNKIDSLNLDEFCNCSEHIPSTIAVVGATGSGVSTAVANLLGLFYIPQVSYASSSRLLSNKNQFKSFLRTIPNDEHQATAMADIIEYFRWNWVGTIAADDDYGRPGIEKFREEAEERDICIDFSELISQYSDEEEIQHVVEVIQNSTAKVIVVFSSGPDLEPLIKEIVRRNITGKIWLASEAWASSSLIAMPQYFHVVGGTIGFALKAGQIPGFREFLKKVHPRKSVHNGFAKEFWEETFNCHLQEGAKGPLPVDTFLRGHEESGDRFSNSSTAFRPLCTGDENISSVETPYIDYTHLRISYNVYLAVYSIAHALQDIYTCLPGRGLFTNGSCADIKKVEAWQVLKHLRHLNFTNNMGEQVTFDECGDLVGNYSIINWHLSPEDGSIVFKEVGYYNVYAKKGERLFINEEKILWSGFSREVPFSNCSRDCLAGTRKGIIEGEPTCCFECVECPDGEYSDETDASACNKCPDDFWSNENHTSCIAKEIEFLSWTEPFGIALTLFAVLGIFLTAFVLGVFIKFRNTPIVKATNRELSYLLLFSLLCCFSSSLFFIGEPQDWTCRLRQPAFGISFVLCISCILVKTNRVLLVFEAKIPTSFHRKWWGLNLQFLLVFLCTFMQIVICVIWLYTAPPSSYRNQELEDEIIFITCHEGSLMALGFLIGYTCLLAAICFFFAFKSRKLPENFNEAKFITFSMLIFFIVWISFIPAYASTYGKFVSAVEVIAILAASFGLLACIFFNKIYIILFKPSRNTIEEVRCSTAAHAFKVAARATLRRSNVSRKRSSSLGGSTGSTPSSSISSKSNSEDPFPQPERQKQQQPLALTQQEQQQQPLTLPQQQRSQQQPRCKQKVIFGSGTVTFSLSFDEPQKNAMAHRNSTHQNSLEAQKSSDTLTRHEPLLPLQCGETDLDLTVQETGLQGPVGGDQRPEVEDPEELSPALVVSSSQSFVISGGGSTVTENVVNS
Kind of assay: Calcium Receptor Inhibitor Assay. It counts as cell-based.
Settings: not given
As for the experimental part: This example illustrates the use of the Calcium Receptor Inhibitor Assay. […] Res. 10 Suppl. […] Intracellular Ca^2+ was measured using fluo-3, a fluorescent calcium indicator.
The procedure was as follows:
1. Cells were maintained in T-150 flasks in selection media (DMEM supplemented with 10% fetal bovine serum and 200 μg/mL hygromycin B), under 5% CO2:95% air at 37° C. and were grown up to 90% confluency.
2. The medium was decanted and the cell monolayer was washed twice with phosphate-buffered saline (PBS) kept at 37° C. After the second wash, 6 mL of 0.02% EDTA in PBS was added and incubated for 4 minutes at 37° C. Following the incubation, cells were dispersed by gentle agitation.
3. Cells from 2 or 3 flasks were pooled and pelleted (100×g). The cellular pellet was resuspended in […] of SPF-PCB+ and pelleted again by centrifugation. This washing was done twice.
SPF-PCB was made up and stored at 4° C. On the day of use, SPF-PCB was supplemented with 1 mg/mL of D-glucose and 1 mM CaCl2 and then split into two fractions. To one fraction, bovine serum albumin (BSA; fraction V, ICN) was added at 5 mg/mL (SPF-PCB+). This buffer was used for washing, loading and maintaining the cells. The BSA-free fraction was used for diluting the cells in the cuvette for measurements of fluorescence.
5. Following the incubation period, the cells were pelleted by centrifugation. The resulting pellet was washed with SPF-PCB+. After this washing, cells were resuspended in SPF-PCB+ at a density of 1–2×10^6 cells/mL.
6. For recording fluorescent signals, 300 μL of cell suspension were diluted in 1.2 mL of SPF buffer containing 1 mM CaCl2 and 1 mg/mL of D-glucose. Measurements of fluorescence were performed at 37° C. with constant stirring using a spectrofluorimeter. […] To calibrate fluorescence signals, digitonin (5 mg/mL in ethanol) was added to obtain Fmax, and the apparent Fmin was determined by adding Tris-EGTA (2.5 M Tris-Base, 0.3 M EGTA).
7. To determine the potential calcilytic activity of test compounds, cells were incubated with test compound (or vehicle as a control) for 90 seconds before increasing the concentration of extracellular Ca^2+ from 1 to 2 mM. Calcilytic compounds were detected by their ability to block, in a concentration-dependent manner, increases in the concentration of intracellular Ca^2+ elicited by extracellular Ca^2+.
As for `COc1ccc(CC(C)(C)NCC(O)COCC2CCCCC2)cc1` (stereo not drawn) [Compound 75, N-(2-Hydroxy-3-cyclohexylmethoxypropyl)-1,1-dimethyl-2-(4-methoxyphenyl)ethylamine Hydrochloride], the IC50 is less than 10 µM.
With `COc1ccc(CC(C)(C)NCC(O)CCc2ccccc2)cc1` (stereo not drawn) [Compound 79, N-(2-Hydroxy-4-phenylbutyl)-1,1-dimethyl-2-(4-methoxyphenyl)ethylamine Hydrochloride], the IC50 is less than 50 µM.
As for `COc1ccc(CC(C)(C)NCCc2ccccc2)cc1` [Compound 84, N-(2-Phenylethyl)-1,1-dimethyl-2-(4-methoxyphenyl)ethylamine], the IC50 was greater than 50 µM.
On the same count and under the same terms, the value for `COc1ccc(CC(C)(C)NCC(O)COC2CCCCC2)cc1` (stereo not drawn) [Compound 93, N-(2-hydroxy-3-cyclohexoxypropyl)-1,1-dimethyl-2-(4-methoxyphenyl)ethylamine] was less than 10 µM.

The same assay, now with this note: HEK 293 4.0–7 cells stably expressing the human calcium receptor; fluo-3; read-out: IC50 for blocking increases of intracellular Ca2+ elicited by extracellular Ca2+.
In the case of `CCCCCCCCCCCCOCC(O)CNC(C)(C)Cc1ccc(OC)cc1` (stereo not drawn) [Compound 72, N-(3-Dodecanoxy-2-hydroxypropyl)-1,1-dimethyl-2-(4-methoxyphenyl)ethylamine], the IC50 is less than 1 µM.
On the same count and under the same terms, the value for `COc1ccc(CC(C)(C)NCC(O)COCC23CC4CC(CC(C4)C2)C3)cc1` (stereo not drawn) [Compound 74, N-[2-Hydroxy-3-(1-adamantylmethoxy)propyl]-1,1-dimethyl-2-(4-methoxyphenyl)ethylamine Hydrochloride] was less than 1 µM.
For the compound `COc1ccc(CCC(C)(C)NCC(O)COc2ccccc2)cc1` (stereo not drawn) [Compound 90, N-(2-Hydroxy-3-phenoxypropyl)-1,1-dimethyl-3-(4-methoxyphenyl)propylamine Hydrochloride], the IC50 was less than 50 µM.
On to `CC(C)(Cc1cccc2ccccc12)NCC(O)COc1ccccc1` (stereo not drawn) [Compound 92, N-(2-hydroxy-3-phenoxypropyl)-1,1-dimethyl-2-(1-naphthyl)ethylamine], for which the IC50 is greater than 50 µM.
For `COc1ccc(CC(C)(C)NCC(O)COC23CC4CC(CC(C4)C2)C3)cc1` (stereo not drawn) [Compound 96, N-[2-Hydroxy-3-(1-adamantanoxy)propyl]-1-1,1-dimethyl-2-(4-methoxyphenyl)ethyl amine], the IC50 is less than 1 µM.
The same measure, in the same setting: the value for `Cc1ccc(CC(C)(C)NCC(O)COc2ccccc2)cc1` (stereo not drawn) [Compound 98, N-(2-Hydroxy-3-phenoxypropyl)-1,1-dimethyl-2-(4-methylphenyl)ethylamine Hydrochloride] was less than 10 µM; that for `COc1cccc(CC(C)(C)NCC(O)COc2ccccc2)c1` (stereo not drawn) [Compound 99, N-(2-Hydroxy-3-phenoxypropyl)-1,1-dimethyl-2-(3-methoxyphenyl)ethylamine Hydrochloride] was greater than 50 µM; that for `COc1ccc(CC(C)(C)NCC(C)(O)COc2ccccc2)cc1` (stereo not drawn) [Compound 101, N-(2-Hydroxy-2-methyl-3-phenoxypropyl)-1,1-dimethyl-2-(4-methoxyphenyl)ethylamine Hydrochloride] was less than 50 µM.
As for `CCOc1ccc(CC(C)(C)NCC(O)COc2ccccc2)cc1` (stereo not drawn) [Compound 102, N-(2-hydroxy-3-phenoxypropyl)-1,1-dimethyl-2-(4-ethoxyphenyl)ethylamine], the IC50 is greater than 50 µM.
With `CC(C)(Cc1ccc(Cl)cc1)NCC(O)COc1ccccc1` (stereo not drawn) [Compound 103, N-(2-Hydroxy-3-phenoxypropyl)-1,1-dimethyl-2-(4-chlorophenyl)ethylamine Hydrochloride], the IC50 is less than 10 µM.
The same measure, in the same setting: then `CC(C)(Cc1cccc(Cl)c1)NCC(O)COc1ccccc1` (stereo not drawn) [Compound 104, N-(2-Hydroxy-3-phenoxypropyl)-1,1-dimethyl-2-(3-chlorophenyl)ethylamine Hydrochloride], with less than 10 µM.
Turning to `COc1ccc(CC(C)(C)NC[C@@H](O)COc2cccc(Cl)c2C#N)cc1` [Compound 109, (R)—N-[2-Hydroxy-3-(3-chloro-2-cyanophenoxy)propyl]-1,1-dimethyl-2-(4-methoxyphenyl)-ethylamine Hydrochloride], the IC50 was less than 1 µM.
On the same count and under the same terms, then `CCc1ccc(CC(C)(C)NCC(O)COc2ccccc2)cc1` (stereo not drawn) [Compound 110, N-(2-Hydroxy-3-phenoxypropyl)-1,1-dimethyl-2-(4-ethylphenyl)ethylamine Hydrochloride], with less than 10 µM; and `CC(C)(Cc1ccc(OC(F)(F)F)cc1)NCC(O)COc1ccccc1` (stereo not drawn) [Compound 111, N-(2-Hydroxy-3-phenoxypropyl)-1,1-dimethyl-2-(4-trifluoromethoxyphenyl)ethylamine Hydrochloride], with less than 10 µM; and `CC(C)c1ccc(CC(C)(C)NCC(O)COc2ccccc2)cc1` (stereo not drawn) [Compound 112, N-(2-Hydroxy-3-phenoxypropyl)-1,1-dimethyl-2-(4-isopropylphenyl)ethylamine Hydrochloride], with less than 1 µM.
On the same count and under the same terms, the value for `CCC(C)(Cc1ccc(OC)cc1)NCC(O)COc1ccccc1` (stereo not drawn) [Compound 113, N-(2-Hydroxy-3-phenoxypropyl)-1-ethyl-1-methyl-2-(4-methoxyphenyl)ethylamine Hydrochloride] was less than 1 µM; that for `CCC(CC)(Cc1ccc(OC)cc1)NCC(O)COc1ccccc1` (stereo not drawn) [Compound 114, N-(2-Hydroxy-3-phenoxypropyl)-1,1-diethyl-2-(4-methoxyphenyl)ethylamine Hydrochloride] was less than 10 µM; that for `COc1ccc(CC(C)(C)NC[C@@H](O)COc2cccc(Cl)c2Cl)cc1` [Compound 115, (R)—N-[2-Hydroxy-3-(2,3-dichlorophenoxy)propyl]-1,1-dimethyl-2-(4-methoxyphenyl)ethylamine Hydrochloride] was less than 1 µM.
In the case of `COc1ccc(CC(C)(C)NC[C@H](O)COc2cccc(Cl)c2Cl)cc1` [Compound 116, (S)—N-[2-Hydroxy-3-(2,3-dichlorophenoxy)propyl]-1,1-dimethyl-2-(4-methoxyphenyl)ethyl amine Hydrochloride], the IC50 was less than 1 µM.
As for `COc1ccc(CC(C)(C)NCC(O)COc2ccccc2)cc1C` (stereo not drawn) [Compound 117, N-(2-Hydroxy-3-phenoxypropyl)-1,1-dimethyl-2-(4-methoxy-3-methylphenyl)ethylamine Hydrochloride], the IC50 was less than 1 µM.
Same read-out and setting: the value for `COc1ccc(CC(C)(C)NCC(O)COc2cccc(OC)c2C#N)cc1` (stereo not drawn) [Compound 118, N-[2-Hydroxy-3-(2-cyano-3-methoxyphenoxy)propyl]-1,1-dimethyl-2-(4-methoxyphenyl)ethylamine Hydrochloride] was less than 1 µM; that for `COc1ccc(CC(C)(C)NCC(O)COc2cccc(Cl)c2C#N)cc1` (stereo not drawn) [Compound 119, N-[2-Hydroxy-3-(3-chloro-2-cyanophenoxy)propyl]-1,1-dimethyl-2-(4-methoxyphenyl)ethylamine Hydrochloride] was less than 1 µM; that for `CC(C)(Cc1ccc2ccccc2c1)NCC(O)COc1ccccc1` (stereo not drawn) [Compound 120, N-(2-Hydroxy-3-phenoxypropyl)-1,1-dimethyl-2-(2-naphthyl)ethylamine Hydrochloride] was less than 1 µM.
